Converted amounts (≈) assume the structure as drawn.
Assays:
Format in all cases: cell-based
[1] = system: S. aureus HH 127; experiment: MIC by standard agar inclusion method, S. aureus HH 127; settings: Staphylococcus aureus, HH127
[2] = system: S. aureus SK 23390; experiment: MIC by standard agar inclusion method, S. aureus SK 23390; settings: Staphylococcus aureus, SK23390
[3] = system: S. aureus Villaluz; experiment: MIC by standard agar inclusion method, S. aureus Villaluz; settings: Staphylococcus aureus
[4] = system: Strep. faecalis HH 34358; experiment: MIC by standard agar inclusion method, Strep. faecalis HH 34358; settings: Enterococcus faecalis, HH34358
[5] = system: E. Coli SK 12140; experiment: MIC by standard agar inclusion method, E. Coli SK 12140; settings: Escherichia coli
[6] = system: E. Coli HH 33779; experiment: MIC by standard agar inclusion method, E. Coli HH 33779; settings: Escherichia coli
[7] = system: Kleb. pneumo. SK 4200; experiment: MIC by standard agar inclusion method, Kleb. pneumo. SK 4200
[8] = system: Kleb. pneumo. SK 1200; experiment: MIC by standard agar inclusion method, Kleb. pneumo. SK 1200
[9] = system: Salmonella ATCC 12176; experiment: MIC by standard agar inclusion method, Salmonella ATCC 12176; settings: ATCC12176
[10] = system: Shigella paradysentiae; experiment: MIC by standard agar inclusion method, Shigella paradysentiae
[11] = system: Pseudo. aeruginosa HH63; experiment: MIC by standard agar inclusion method, Pseudo. aeruginosa HH63; settings: Pseudomonas aeruginosa
[12] = system: Serratia marc. ATCC 13880; experiment: MIC by standard agar inclusion method, Serratia marc. ATCC 13880; settings: ATCC13880
[13] = system: Entero. aerogenes ATCC 13048; experiment: MIC by standard agar inclusion method, Entero. aerogenes ATCC 13048; settings: Klebsiella aerogenes, ATCC13048

Compound	MIC [1]	MIC [2]	MIC [3]	MIC [4]	MIC [5]	MIC [6]	MIC [7]	MIC [8]	MIC [9]	MIC [10]	MIC [11]	MIC [12]	MIC [13]
Cc1nnc(SCC2=C(C(=O)O)N3C(=O)C(NC(=O)CS(=O)(=O)CC#N)[C@H]3SC2)s1 (stereo partly drawn) [Compound 09346, 7-Cyanomethylsulfonylacetamido-3-(5-methyl-1,3,4-thiadiazol-2-ylthiomethyl)-3-cephem-4-carboxylic acid]	1.6 µg/mL (≈ 3.27 µM)	1.6 µg/mL (≈ 3.27 µM)	100 µg/mL (≈ 204 µM)	25 µg/mL (≈ 51.1 µM)	3.1 µg/mL (≈ 6.33 µM)	6.3 µg/mL (≈ 12.9 µM)	6.3 µg/mL (≈ 12.9 µM)	3.1 µg/mL (≈ 6.33 µM)	6.3 µg/mL (≈ 12.9 µM)	3.1 µg/mL (≈ 6.33 µM)	> 200 µg/mL	> 200 µg/mL	12.5 µg/mL (≈ 25.5 µM)
Cc1nnc(SCC2=C(C(=O)O)N3C(=O)C(NC(=O)CSCC#N)[C@H]3SC2)s1 (stereo partly drawn) [Compound 21436, 7-Cyanomethylmercaptoacetamido-3-(5-methyl-1,3,4-thiadiazol-2-ylthiomethyl)-3-cephem-4-carboxylic acid]	0.2 µg/mL (≈ 0.437 µM)	0.1 µg/mL (≈ 0.219 µM)	25 µg/mL (≈ 54.6 µM)	6.3 µg/mL (≈ 13.8 µM)	1.6 µg/mL (≈ 3.5 µM)	6.3 µg/mL (≈ 13.8 µM)	1.6 µg/mL (≈ 3.5 µM)	0.8 µg/mL (≈ 1.75 µM)	1.6 µg/mL (≈ 3.5 µM)	1.6 µg/mL (≈ 3.5 µM)	> 200 µg/mL	> 200 µg/mL	> 200 µg/mL
Cn1nnnc1SCC1=C(C(=O)O)N2C(=O)C(NC(=O)CS(=O)(=O)CC#N)[C@H]2SC1 (stereo partly drawn) [Compound 72346, 7-Cyanomethylsulfonylacetamido-3-(1-methyltetrazol-5-ylthiomethyl)-3-cephem-4-carboxylic acid]	1.6 µg/mL (≈ 3.38 µM)	1.6 µg/mL (≈ 3.38 µM)	25 µg/mL (≈ 52.8 µM)	50 µg/mL (≈ 106 µM)	1.6 µg/mL (≈ 3.38 µM)	3.1 µg/mL (≈ 6.55 µM)	1.6 µg/mL (≈ 3.38 µM)	1.6 µg/mL (≈ 3.38 µM)	1.6 µg/mL (≈ 3.38 µM)	1.6 µg/mL (≈ 3.38 µM)	> 200 µg/mL	> 200 µg/mL	6.3 µg/mL (≈ 13.3 µM)
CC(=O)OCC1=C(C(=O)O)N2C(=O)C(NC(=O)CSCC#N)C2SC1 (stereo not drawn) [Compound 79336, 7-Cyanomethylmercaptoacetamidocephalosporanic acid]	0.2 µg/mL (≈ 0.519 µM)	0.8 µg/mL (≈ 2.08 µM)	25 µg/mL (≈ 64.9 µM)	12.5 µg/mL (≈ 32.4 µM)	6.3 µg/mL (≈ 16.3 µM)	12.5 µg/mL (≈ 32.4 µM)	1.6 µg/mL (≈ 4.15 µM)	6.3 µg/mL (≈ 16.3 µM)	1.6 µg/mL (≈ 4.15 µM)	6.3 µg/mL (≈ 16.3 µM)	> 200 µg/mL	> 200 µg/mL	> 200 µg/mL
CC(=O)OCC1=C(C(=O)O)N2C(=O)C(NC(=O)CS(=O)(=O)CC#N)C2SC1 (stereo not drawn) [Compound 90246, 7-cyanomethylsulfonylacetamidocephalosporanic acid]	1.6 µg/mL (≈ 3.83 µM)	1.6 µg/mL (≈ 3.83 µM)	25 µg/mL (≈ 59.9 µM)	50 µg/mL (≈ 120 µM)	6.3 µg/mL (≈ 15.1 µM)	25 µg/mL (≈ 59.9 µM)	25 µg/mL (≈ 59.9 µM)	6.3 µg/mL (≈ 15.1 µM)	3.1 µg/mL (≈ 7.43 µM)	6.3 µg/mL (≈ 15.1 µM)	> 200 µg/mL	> 200 µg/mL	50 µg/mL (≈ 120 µM)
Cn1nnnc1SCC1=C(C(=O)O)N2C(=O)C(NC(=O)CSCC#N)[C@H]2SC1 (stereo partly drawn) [Compound 94436, 7-Cyanomethylmercaptoacetamido-3-(1-methyltetrazol-5-ylthiomethyl)-3-cephem-4-carboxylic acid]	0.4 µg/mL (≈ 0.906 µM)	0.4 µg/mL (≈ 0.906 µM)	12.5 µg/mL (≈ 28.3 µM)	50 µg/mL (≈ 113 µM)	0.8 µg/mL (≈ 1.81 µM)	1.6 µg/mL (≈ 3.62 µM)	1.6 µg/mL (≈ 3.62 µM)	1.6 µg/mL (≈ 3.62 µM)	0.4 µg/mL (≈ 0.906 µM)	0.8 µg/mL (≈ 1.81 µM)	> 200 µg/mL	> 200 µg/mL	12.5 µg/mL (≈ 28.3 µM)

Source: patent publication US3963711A, “Cyanomethyl sulfinyl- and sulfonyl-acetamido cephalosporins” (SmithKline Corporation, priority 1975, dated 1976)
